Results published in article PMC5065787 (Bioorganic & medicinal chemistry, 2016).
Where a chain is given by its changes, count along the chain named.

Experiments:
Type in all cases: biochemical
Conditions in all cases: error in parentheses, no unit in table (sec^−1)
[1] = molecular target: T1, h15-LOX-1 E356Q (Homo sapiens, UniProt P16050, E356Q); assay: Steady-state substrate kinetics, E356Q
T1 sequence (P16050 1-662 E356Q): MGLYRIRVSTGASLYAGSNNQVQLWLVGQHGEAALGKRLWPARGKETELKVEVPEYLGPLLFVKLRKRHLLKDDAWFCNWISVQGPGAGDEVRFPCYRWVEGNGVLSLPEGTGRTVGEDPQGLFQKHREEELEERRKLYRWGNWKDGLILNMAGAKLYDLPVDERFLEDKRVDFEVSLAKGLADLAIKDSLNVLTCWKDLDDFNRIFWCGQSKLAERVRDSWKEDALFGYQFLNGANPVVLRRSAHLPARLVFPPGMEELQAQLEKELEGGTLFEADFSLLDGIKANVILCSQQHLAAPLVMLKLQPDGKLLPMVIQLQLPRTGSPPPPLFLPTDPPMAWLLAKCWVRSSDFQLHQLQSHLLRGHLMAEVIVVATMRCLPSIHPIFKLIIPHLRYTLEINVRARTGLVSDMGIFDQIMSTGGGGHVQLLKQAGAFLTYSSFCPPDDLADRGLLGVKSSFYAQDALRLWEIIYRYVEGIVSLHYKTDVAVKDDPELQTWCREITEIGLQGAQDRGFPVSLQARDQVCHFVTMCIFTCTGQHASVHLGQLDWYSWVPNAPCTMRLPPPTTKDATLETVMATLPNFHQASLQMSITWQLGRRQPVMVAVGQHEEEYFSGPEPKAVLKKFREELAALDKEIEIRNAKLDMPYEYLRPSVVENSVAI

[2] = molecular target: T2, h15-LOX-1 L407A (Homo sapiens, UniProt P16050, L407A); assay: Steady-state substrate kinetics, L407A
T2 sequence (P16050 1-662 L407A): T1 sequence (P16050 1-662 E356Q) with Q356E, L407A

[3] = molecular target: T3, WT h15-LOX-1 (Homo sapiens, UniProt P16050); assay: Steady-state substrate kinetics, WT
T3 sequence (P16050 1-662): T1 sequence (P16050 1-662 E356Q) with Q356E

[4] = molecular target: T4, h15-LOX-1 F414I (Homo sapiens, UniProt P16050, F414I); assay: Steady-state substrate kinetics, F414I
T4 sequence (P16050 1-662 F414I): T1 sequence (P16050 1-662 E356Q) with Q356E, F414I

kcat [1]: 3.0 (0.1)
kcat [2]: 2.5 (0.2)
kcat [3]: 11 (0.5)
kcat [4]: 1.8 (0.05)
Structure (SMILES): CCCCC/C=C\C/C=C\C/C=C\C/C=C\CCCC(=O)O [AA, arachidonic acid]
